Test results as given in patent US20260325542A1, “CANCER TARGETING COMPLEX, AND COMPOSITION COMPRISING SAME FOR PREVENTING OR TREATING CANCER” (EWHA UNIVERSITY - INDUSTRY COLLABORATION FOUNDATION, priority 2023, published 2026).
“Also recorded” adds a separate entry of the source.

Columns and labels:
Bcl-2 [1] = assay: Western blot, Bcl-2 level in 4T1 cells; format: cell-based, mouse; details: 0 to 10 μM, 24 hours
Procedure: Accordingly, Western blot analysis was performed to confirm the anticancer ability by evaluating the presence or absence of degradation of BRD4 and other related proteins (e.g., c-Myc and Bcl-2) when cancer cells were treated with the complex for cancer targeting (ECMal-PROTAC) of example 1. The complex for cancer targeting (ECMal-PROTAC) of example 1 and ARV-771 were prepared as samples.
First, 1×10^5 4T1 cells were dispensed into each well of a 6-well culture plate and cultured for 24 hours at 37° C. and 5% carbon dioxide atmosphere. The cell culture medium was supplemented with various concentrations of ARV-771 (0 to 10 μM) or the complex for cancer targeting (ECMal-PROTAC) of example 1 (0 to 10 μM), and cultured at 37° C. for 24 hours. After the culture was completed, the cells were washed 3 times with PBS, and lysed with a lysis buffer containing 1% […]. Cell debris from the recovered lysate was removed by centrifugation at 12,000 rpm for 25 minutes. After recovering the supernatant, the protein amount was measured using a BCA kit. The supernatant was loaded onto a 10% sodium dodecyl sulfate-polyacrylamide gel. Electrophoresis (SDS-PAGE) was performed, followed by blotting onto a polyvinylidene difluoride (PVDF) membrane. […] The immunoreactive bands on the PVDF membrane were analyzed through an ECL (enhanced chemiluminescence) system.

cancer tissue = assay: TUNEL analysis of excised cancer tissue; format: in vivo, mouse; details: cancer tissue excised after 15 days
Procedure: (§1) Cancer animal models were prepared by inoculating 1×10^6 4T1 cells into the left thigh of the mice, and raising them until the tumor volume reached 50-80 mm^3.
(§2) The control group was administered saline (10 mg/kg) once every 3 days for 15 days through the tail vein (total 4 administrations). The comparison group was administered ARV-771 (10 mg/kg) once every 3 days for 15 days through the tail vein (total 4 administrations). The example group was administered ECMal-PROTAC 10 mg/kg (wquiv. to ARV-771) of example 1 once every 3 days for 15 days through the tail vein (total 4 administrations).
The control group, the comparison group, and the example group were euthanized after 15 days, and major organs (heart, liver, lung, spleen, kidney) and cancer tissue were excised.
Furthermore, to analyze cancer cell apoptosis, TUNEL (terminal deoxynucleotidyl transferase dUTP nick end labeling) analysis was performed on cancer tissue excised from the control group, the comparison group, and the example group. Next, histological analysis was performed by H&E (hematoxylin & eosin) staining of the major organ tissues and cancer tissue of each excised group.

4T1 cells = assay: CCK-8 assay, toxicity on cancer cells; format: cell-based, mouse; details: CCK-8, 48 hours
Procedure: The toxicity of ARV-771 and ECMal-PROTAC on cancer cells was analyzed by the CCK-8 (cell counting kit-8) assay. 4T1 cells were dispensed into a 96-well culture plate at 3×10^3 cells per well. They were cultured for 24 hours at 37° C. and 5% carbon dioxide atmosphere. The cells were treated with different concentrations of ARV-771 (0.01 to 100 μM), the complex for cancer targeting (ECMal-PROTAC) of example 1 (0.01 to 100 μM), and the complex for cancer targeting (Mal-PROTAC) of example 2 (0.01 to 100 μM) separately, and cultured for 48 hours. After exposing each well to 10% CCK-8-containing culture media for 30 minutes, the viability of 4T1 cells treated with ARV-771 or 4T1 cells treated with ECMal-PROTAC or Mal-PROTAC was analyzed with a microplate reader. The change in cell viability according to the concentration of ARV-771 or ECMal-PROTAC or Mal-PROTAC was calculated using GraphPad Prism 8 software (GraphPad Software, San Diego, CA, USA) by fitting the IC50 (haf-maximal inhibitory concentration) value.

BRD4 and c-Myc = assay: Immunofluorescence of excised cancer tissue (DAPI, anti-BRD4, anti-c-Myc); format: in vivo, mouse; details: vs comparison group and control group
Procedure: as §2
FIG. 33 is an image taken with a confocal laser scanning microscope after staining cancer tissue excised from the control group (Control, Saline), the comparison group (ARV-771, intravenous injection), and the example group (ECMal-PROTAC, intravenous injection) with DAPI, anti-BRD4, and anti-c-Myc.

4T1 tumor = assay: In vivo anticancer efficacy, tumor size in 4T1 cancer animal model; set-up: species or system mouse
Procedure: 5-week-old female Balb/c and Balb/c nu/nu mice were purchased from NaraBio, Inc (Seoul, Republic of Korea). The mice underwent a 2-week acclimatization period before the example. The mice were raised under free-feeding conditions in a breeding room maintained at a temperature of 22±2° C. and humidity of 40-60% during the example. The light and dark cycle was regulated at 12-hour intervals. All examples were conducted in compliance with the relevant laws and institutional guidelines of the KIST Institutional Animal Care and Use Committee (IACUC; Approval No.: 2021-143).
as §1
For the preparation of the control group, the comparison group, and the example group, mice were randomly divided into groups of 5.
as §2
Tumor size and body weight were measured every two days for the control group, the comparison group, and the example group.

BRD4 = target: T1, BRD4 (Mus musculus, UniProt Q9ESU6); assay: Western blot of excised cancer tissue, BRD4; format: in vivo
T1 construct: Western blot after PROTAC (ARV-771 release, VHL recruiting)
Procedure: as §2

Bcl-2 [2] = assay: Western blot of excised cancer tissue, Bcl-2; format: in vivo, mouse
Procedure: as §2

[3] = Western blot, vs ARV-771 group (so in the source)

`Cc1ncsc1-c1ccc([C@H](C)NC(=O)[C@@H]2C[C@@H](OC(=O)CCCCn3nnc4c3CCC3C(CC4)C3COC(=O)NCCOCCOCCNC(=O)CCN3C(=O)C=CC3=O)CN2C(=O)[C@@H](NC(=O)COCCCOCCNC(=O)C[C@@H]2N=C(c3ccc(Cl)cc3)c3c(sc(C)c3C)-n3c(C)nnc32)C(C)(C)C)cc1` (stereo partly shown) [ECMal-PROTAC] was tested, and the Bcl-2 level (Bcl-2 [1]) was “reduces the levels; also recorded: reduced expression”, the “cancer cell apoptosis (TUNEL)” value (cancer tissue) was “cancer cell apoptosis was induced throughout the entire cancer tissue” and the “IC50 compared to native ARV-771” value (4T1 cells) was “slight increase in IC50 compared to native ARV-771”. For the same compound, the IC50 (4T1 cells; Mus musculus, 4T1, FIGS. 15A and 15B, read-out: IC50 against cancer cells) was 7.78 µM, the “fluorescence signals related to c-Myc and BRD4” value (BRD4 and c-Myc) was “weaker fluorescence signals” and the “cancer size / increase in cancer size” value (4T1 tumor; 10 mg/kg equiv. to ARV-771, 15 days) was “significantly reduced”. The “tumor volume, fold smaller than comparison group” value (4T1 tumor; 10 mg/kg equiv. to ARV-771, after 15 days, vs ARV-771 10 mg/kg) was 5.3 times, the “tumor volume, fold smaller than control group” value (4T1 tumor; 10 mg/kg equiv. to ARV-771, after 15 days, vs saline) was 6.1 times and the “tumor volume after 15 days” value (4T1 tumor; 10 mg/kg equiv. to ARV-771, tail vein, once every 3 days for 15 days) was 176.13±81.62 mm3. For the same compound, the “tumor size (optical image)” value (4T1 tumor; excised after 15 days (FIG. 26)) was “much smaller tumor size than the other groups”, the “BRD4 level in cancer tissue vs control” value (BRD4; Western blot, 10 mg/kg) was “much lower levels” and the “BRD4 level in cancer tissue, example group vs comparison group” value (BRD4; [3]) was “no significant difference”. The “relative expression level of BRD4, fold lower than control group” value (BRD4; cancer tissue, FIG. 32) was 7.5 times, the “Bcl-2 level in cancer tissue vs control” value (Bcl-2 [2]; Western blot, 10 mg/kg) was “much lower levels” and the “Bcl-2 level in cancer tissue, example group vs comparison group” value (Bcl-2 [2]; [3]) was “no significant difference”. For the same compound, the “relative expression level of Bcl-2, fold lower than control group” value (Bcl-2 [2]; cancer tissue, FIG. 32) was 2.3 times.
